One experiment concerns the target T1, CDK2 (Homo sapiens, UniProt P24941).
T1 construct: endogenous in cells; host or cells: MDA-MB-231
The experiment can be described thus: CDK protein degradation activity (Western blotting), CDK2. Format: cell-based. As to conditions: MDA-MB-231 cells, 16 hours, Western blot. An outline of the steps:
(§1)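 CDK2 and CDK9 protein levels measured by Western blot with densitometry, using tubulin as loading reference. Cells were MDA-MB-231, exposed for 16 h to 100 nM, 1 μM or 10 μM compound or to DMSO.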

In a further experiment the target is T2, CDK9 (Homo sapiens, UniProt P50750).
T2 construct: endogenous in cells; host or cells: MDA-MB-231
T2 sequence (P50750 whole entry): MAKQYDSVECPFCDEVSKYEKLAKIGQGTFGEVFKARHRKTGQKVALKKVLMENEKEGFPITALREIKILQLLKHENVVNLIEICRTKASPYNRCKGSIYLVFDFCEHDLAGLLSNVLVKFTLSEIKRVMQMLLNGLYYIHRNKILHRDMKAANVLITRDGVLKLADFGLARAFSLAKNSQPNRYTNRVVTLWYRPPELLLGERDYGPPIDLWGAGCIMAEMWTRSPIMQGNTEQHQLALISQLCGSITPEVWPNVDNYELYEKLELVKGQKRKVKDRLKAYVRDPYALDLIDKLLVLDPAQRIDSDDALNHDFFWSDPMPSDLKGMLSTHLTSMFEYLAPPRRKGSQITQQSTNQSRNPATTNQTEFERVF
Description: CDK protein degradation activity (Western blotting), CDK9. Format: cell-based. The following applies: MDA-MB-231 cells, 16 hours, Western blot. An outline of the steps:
as §1
In general terms: A western blot detects proteins with antibodies after separation by electrophoresis.

As for `Cc1cccc(C(=O)NC2CC(n3cnc4c(NCc5cccc(N6CCN(CC7CCN(C(=O)COc8ccc9c(c8)C(=O)N([C@H]8CCC(=O)NC8=O)C9=O)CC7)CC6)c5)ncnc43)C2)n1` (stereo partly drawn) [Compound 133, N-((1s,3s)-3-(6-((3-(4-((1-(2-((2-(2,6-dioxopiperidin-3-yl)-1,3-dioxoisoindolin-5-yl)oxy)acetyl)piperidin-4-yl)methyl)piperazin-1-yl)benzyl)amino)-9H-purin-9-yl)cyclobutyl)-6-methylpicolinamide], at CDK2, the “Enzyme degradation CDK2 (% remaining) @ 0.1 μM” value came out at 90%, the “Enzyme degradation CDK2 (% remaining) @ 1 μM” value came to 70% and the “Enzyme degradation CDK2 (% remaining) @ 10 μM” value was determined as 80%. Also, on CDK9, the “Enzyme degradation CDK9 (% remaining) @ 0.1 μM” value came to 80%, the “Enzyme degradation CDK9 (% remaining) @ 1 μM” value is given as 0% and the “Enzyme degradation CDK9 (% remaining) @ 10 μM” value is on record as 0%.

Consider `Cc1cccc(C(=O)NC2CC(n3cnc4c(NCc5ccc(N6CCN(CC7CCN(c8cccc9c8C(=O)N([C@H]8CCC(=O)NC8=O)C9=O)CC7)CC6)cc5)ncnc43)C2)n1` (stereo partly drawn) [Compound 150, N-((1s,3s)-3-(6-((4-(4-((1-(2-(2,6-dioxopiperidin-3-yl)-1,3-dioxoisoindolin-4-yl)piperidin-4-yl)methyl)piperazin-1-yl)benzyl)amino)-9H-purin-9-yl)cyclobutyl)-6-methylpicolinamide], for which, on CDK2, the “Enzyme degradation CDK2 (% remaining) @ 0.1 μM” value stood at 70%, the “Enzyme degradation CDK2 (% remaining) @ 1 μM” value came to 80% and the “Enzyme degradation CDK2 (% remaining) @ 10 μM” value was found to be 80%. On CDK9, the “Enzyme degradation CDK9 (% remaining) @ 0.1 μM” value is 20%, the “Enzyme degradation CDK9 (% remaining) @ 1 μM” value turned out to be 10% and the “Enzyme degradation CDK9 (% remaining) @ 10 μM” value is 0%.

On to “N-((1s,3s)-3-(6-((4-(4-(2-(1-(1-(2-(2,6-dioxopiperidin-3-yl)-1,3-dioxoisoindolin-5-yl)piperidin-4-carbonyl)piperidin-4-yl)ethyl)piperazin-1-yl)phenyl)amino)-9H-purin-9-yl)cyclobutyl)-2-phenylacetamide [Compound 404]”, for which, at CDK2, the “Enzyme degradation CDK2 (% remaining) @ 0.1 μM” value is reported as 50/50/50%, the “Enzyme degradation CDK2 (% remaining) @ 1 μM” value is 50/50/50% and the “Enzyme degradation CDK2 (% remaining) @ 10 μM” value is on record as 50/50/50%. Also, on CDK9, the “Enzyme degradation CDK9 (% remaining) @ 0.1 μM” value is given as 0/0/0%, the “Enzyme degradation CDK9 (% remaining) @ 1 μM” value is given as 0/0/0% and the “Enzyme degradation CDK9 (% remaining) @ 10 μM” value is reported as 0/0/0%.

Turning to `O=C1CC[C@@H](c2ccc(OCC(=O)N3CCC(CC(=O)N4CCN(c5ccc(Nc6ncnc7c6ncn7C6CC(NC(=O)Cc7ccccc7)C6)cc5)CC4)CC3)cc2)C(=O)N1` (stereo partly drawn) [Compound 203, N-((1s,3s)-3-(6-((4-(4-(2-(1-(2-(4-(2,6-dioxopiperidin-3-yl)phenoxy)acetyl)piperidin-4-yl)acetyl)piperazin-1-yl)phenyl)amino)-9H-purin-9-yl)cyclobutyl)-2-phenylacetamide], at CDK2, the “Enzyme degradation CDK2 (% remaining) @ 0.1 μM” value amounted to 70%, the “Enzyme degradation CDK2 (% remaining) @ 1 μM” value turned out to be 40% and the “Enzyme degradation CDK2 (% remaining) @ 10 μM” value is 70%. For the same molecule, on CDK9, the “Enzyme degradation CDK9 (% remaining) @ 0.1 μM” value is 20%, the “Enzyme degradation CDK9 (% remaining) @ 1 μM” value is 0% and the “Enzyme degradation CDK9 (% remaining) @ 10 μM” value is 0%.

As for `O=C1CC[C@H](N2C(=O)c3ccc(N4CCN(CCCC5CCN(c6ccc(Nc7ncnc8c7ncn8C7CC(NC(=O)Cc8ccccc8)C7)cc6)CC5)CC4)cc3C2=O)C(=O)N1` (stereo partly drawn) [Compound 347, N-((1s,3s)-3-(6-((4-(4-(3-(4-(2-(2,6-dioxopiperidin-3-yl)-1,3-dioxoisoindolin-5-yl)piperazin-1-yl)propyl)piperidin-1-yl)phenyl)amino)-9H-purin-9-yl)cyclobutyl)-2-phenylacetamide], on CDK2, the “Enzyme degradation CDK2 (% remaining) @ 0.1 μM” value stood at 10%, the “Enzyme degradation CDK2 (% remaining) @ 1 μM” value came out at 0% and the “Enzyme degradation CDK2 (% remaining) @ 10 μM” value is given as 0%. In addition, on CDK9, the “Enzyme degradation CDK9 (% remaining) @ 0.1 μM” value is on record as 30%, the “Enzyme degradation CDK9 (% remaining) @ 1 μM” value was 0% and the “Enzyme degradation CDK9 (% remaining) @ 10 μM” value worked out at 0%.

Values taken from US20260125382A1, “COMPOUNDS FOR INHIBITING OR DEGRADING CDK2 AND/OR CDK9 AND MEDICINAL USE THEREOF” (KOREA RESEARCH INSTITUTE OF CHEMICAL TECHNOLOGY, priority 2022, published 2026).
